Results taken from patent US20110117081A1, “FUNCTIONALIZED PYRROLIDINES AND USE THEREOF AS IAP INHIBITORS” (priority 2008, published 2011).

Experiments:
[1] = test system: Ovarian adenocarcinoma SKOV3 cells; experiment: SKOV3 cell viability assay (MTT); format: cell-based; settings: Homo sapiens, SK-OV-3, 72 hours
Procedure: Ovarian adenocarcinoma SKOV3 cells (ATCC# HTB-77) were cultured as monolayers in McCoy's 5a medium (HyClone) supplemented with 2.2 g/L sodium bicarbonate (Gibco), 10% FBS (HyClone) and 1% penicillin/streptomycin (HyClone). Cells were seeded in tissue culture-treated 96 well plates at 5000 cells/well in 150 ul of media. After 24 hours, triplicate wells of cells were treated with various concentrations of compound (0.01 to 10000 nM) diluted in 50 ul of culture media. Cells were incubated at 37° C. (5% CO2) in the presence of compound for 72 hours. Metabolic viability of remaining cells was assessed by MTT (thiazolyl blue tetrazolium bromide, Sigma) assay. 20 ul of MTT reagent (10 mg/ml) was added per well and plates were incubated for 4 hours at 37° C. (5% CO2). The supernatant was then removed from the plate. The converted MTT product was solubilized with 100 uL of isopropanol and the absorbance was read at 570 nm using a Tecan spectrophotometer.
(§1) The percentage viability of compound-treated cells was expressed as a fraction of the absorbance/luminescence signal obtained from non-treated cells. EC50 values (corresponding to 50% cell survival in the presence of compound as compared to untreated controls) were calculated from MTT survival curves (HCT116 and SKOV3) using BioAssay software (CambridgeSoft) and from Cell Titer-Glo survival curves (synovioycte and Jurkat cells) using GraphPad Prism (Graph Pad Software Inc.). In the below chart, EC50 values are summarized as follows: a=EC50 of less than 10 nM; b=EC50 of 10-100 nM; and c=EC50 of greater than 100 nM.

[2] = test system: Colorectal carcinoma HCT116 cells; experiment: HCT116 + ETR1 cell viability assay (MTT); format: cell-based; settings: with ETR1 (40 ng/ml), 72 hrs
Procedure: Colorectal carcinoma HCT116 cells (ATCC# CCL-247) were cultured as monolayers in 96 well plates at a density of 2000 cells per well in 100 ul of McCoy's 5a medium (HyClone) supplemented with 2.2 g/L sodium bicarbonate (Gibco), 10% FBS (HyClone) and 1% penecillin/streptomycin (HyClone) for 24 hours. Triplicate wells of cells were treated for 72 hrs at 37° C. (5% CO2) with 50 ul of HGS agonistic Trail receptor antibody, ETR1 (40 ng/ml) in combination with 50 ul of diluted compound (0.01 to 10000 nM). Metabolic viability of remaining cells was assessed by MTT assay.
as §1

SMILES	EC50 [1] [nM]	EC50 [2] [nM]
CN[C@@H](C)C(=O)N[C@H](C(=O)N1C[C@@H](NC(=O)c2ccc(C(=O)N[C@H]3C[C@@H](C(=O)NC(c4ccccc4)c4ccccc4)N(C(=O)[C@@H](NC(=O)[C@H](C)NC)C4CCCCC4)C3)cc2)C[C@H]1C(=O)NC(c1ccccc1)c1ccccc1)C1CCCCC1 [Compound 5]	< 10	< 10
CN[C@@H](C)C(=O)N[C@H](C(=O)N1C[C@@H](NC(=O)c2ccc(C(=O)N[C@H]3C[C@@H](C(=O)N[C@@H]4CCc5ccccc54)N(C(=O)[C@@H](NC(=O)[C@H](C)NC)C4CCCCC4)C3)cc2)C[C@H]1C(=O)N[C@@H]1CCc2ccccc21)C1CCCCC1 [Compound 6]	< 10	< 10
CN[C@@H](C)C(=O)N[C@H](C(=O)N1C[C@@H](NC(=O)c2ccc(C(=O)N[C@H]3C[C@@H](C(=O)N[C@H](CCCc4ccccc4)c4ccccc4)N(C(=O)[C@@H](NC(=O)[C@H](C)NC)C4CCCCC4)C3)cc2)C[C@H]1C(=O)N[C@H](CCCc1ccccc1)c1ccccc1)C1CCCCC1 [Compound 8]	> 100	10 to 100
CN[C@@H](C)C(=O)N[C@H](C(=O)N1C[C@@H](NC(=O)c2ccc(-c3ccc(C(=O)N[C@H]4C[C@@H](C(=O)N[C@@H]5CCCc6ccccc65)N(C(=O)[C@@H](NC(=O)[C@H](C)NC)C5CCCCC5)C4)cc3)cc2)C[C@H]1C(=O)N[C@@H]1CCCc2ccccc21)C1CCCCC1 [Compound 9]	< 10	< 10
CN[C@@H](C)C(=O)N[C@H](C(=O)N1C[C@@H](NC(=O)c2ccc(-c3ccc(C(=O)N[C@H]4C[C@@H](C(=O)N[C@@H]5CCc6ccccc65)N(C(=O)[C@@H](NC(=O)[C@H](C)NC)C5CCCCC5)C4)cc3)cc2)C[C@H]1C(=O)N[C@@H]1CCc2ccccc21)C1CCCCC1 [Compound 10]	< 10	< 10
CN[C@@H](C)C(=O)N[C@H](C(=O)N1C[C@@H](NC(=O)c2ccc(-c3ccc(C(=O)N[C@H]4C[C@@H](C(=O)NC(c5ccccc5)c5ccccc5)N(C(=O)[C@@H](NC(=O)[C@H](C)NC)C5CCCCC5)C4)cc3)cc2)C[C@H]1C(=O)NC(c1ccccc1)c1ccccc1)C1CCCCC1 [Compound 11]	10 to 100	< 10
CN[C@@H](C)C(=O)N[C@H](C(=O)N1C[C@@H](NC(=O)c2ccc(-c3ccc(C(=O)N[C@H]4C[C@@H](C(=O)NC5c6ccccc6-c6ccccc65)N(C(=O)[C@@H](NC(=O)[C@H](C)NC)C5CCCCC5)C4)cc3)cc2)C[C@H]1C(=O)NC1c2ccccc2-c2ccccc21)C1CCCCC1 [Compound 12]	10 to 100	< 10
CN[C@@H](C)C(=O)N[C@H](C(=O)N1C[C@@H](NC(=O)c2ccc(C(=O)N[C@H]3C[C@@H](C(=O)N[C@H](C)c4ccccc4)N(C(=O)[C@@H](NC(=O)[C@H](C)NC)C4CCCCC4)C3)cc2)C[C@H]1C(=O)N[C@H](C)c1ccccc1)C1CCCCC1 [Compound 13]	< 10	< 10
CN[C@@H](C)C(=O)N[C@H](C(=O)N1C[C@@H](NC(=O)c2ccc(C(=O)N[C@H]3C[C@@H](C(=O)N[C@H](Cc4ccccc4)c4ccccc4)N(C(=O)[C@@H](NC(=O)[C@H](C)NC)C4CCCCC4)C3)cc2)C[C@H]1C(=O)N[C@H](Cc1ccccc1)c1ccccc1)C1CCCCC1 [Compound 14]	10 to 100	< 10
CN[C@@H](C)C(=O)N[C@H](C(=O)N1C[C@@H](NC(=O)c2ccc(C(=O)N[C@H]3C[C@@H](C(=O)NC4c5ccccc5-c5ccccc54)N(C(=O)[C@@H](NC(=O)[C@H](C)NC)C4CCCCC4)C3)cc2)C[C@H]1C(=O)NC1c2ccccc2-c2ccccc21)C1CCCCC1 [Compound 15]	< 10	< 10
CN[C@@H](C)C(=O)N[C@H](C(=O)N1C[C@@H](NC(=O)c2ccc(C(=O)N[C@H]3C[C@@H](C(=O)N[C@H](CCc4ccccc4)c4ccccc4)N(C(=O)[C@@H](NC(=O)[C@H](C)NC)C4CCCCC4)C3)cc2)C[C@H]1C(=O)N[C@H](CCc1ccccc1)c1ccccc1)C1CCCCC1 [Compound 16]	10 to 100	10 to 100
CN[C@@H](C)C(=O)N[C@H](C(=O)N1C[C@@H](NC(=O)C2CCC(C(=O)N[C@H]3C[C@@H](C(=O)N[C@H](COCc4ccccc4)c4ccccc4)N(C(=O)[C@@H](NC(=O)[C@H](C)NC)C4CCCCC4)C3)CC2)C[C@H]1C(=O)N[C@H](COCc1ccccc1)c1ccccc1)C1CCCCC1 (stereo partly drawn) [Compound 17]	10 to 100	< 10
CN[C@@H](C)C(=O)N[C@H](C(=O)N1C[C@@H](NC(=O)c2ccc(C(=O)N[C@H]3C[C@@H](C(=O)N[C@H](COCc4ccccc4)c4ccccc4)N(C(=O)[C@@H](NC(=O)[C@H](C)NC)C4CCCCC4)C3)cc2)C[C@H]1C(=O)N[C@H](COCc1ccccc1)c1ccccc1)C1CCCCC1 [Compound 18]	10 to 100	< 10
CN[C@@H](C)C(=O)N[C@H](C(=O)N1C[C@@H](NC(=O)c2ccc3cc(C(=O)N[C@H]4C[C@@H](C(=O)N[C@@H]5CCCc6ccccc65)N(C(=O)[C@@H](NC(=O)[C@H](C)NC)C5CCCCC5)C4)ccc3c2)C[C@H]1C(=O)N[C@@H]1CCCc2ccccc21)C1CCCCC1 [Compound 19]	< 10	< 10
CN[C@@H](C)C(=O)N[C@H](C(=O)N1C[C@@H](NC(=O)c2ccc3cc(C(=O)N[C@H]4C[C@@H](C(=O)NC5c6ccccc6-c6ccccc65)N(C(=O)[C@@H](NC(=O)[C@H](C)NC)C5CCCCC5)C4)ccc3c2)C[C@H]1C(=O)NC1c2ccccc2-c2ccccc21)C1CCCCC1 [Compound 20]	< 10	< 10
CN[C@@H](C)C(=O)N[C@H](C(=O)N1C[C@@H](NC(=O)c2ccc3cc(C(=O)N[C@H]4C[C@@H](C(=O)N[C@H](COCc5ccccc5)c5ccccc5)N(C(=O)[C@@H](NC(=O)[C@H](C)NC)C5CCCCC5)C4)ccc3c2)C[C@H]1C(=O)N[C@H](COCc1ccccc1)c1ccccc1)C1CCCCC1 [Compound 21]	10 to 100	< 10
CN[C@@H](C)C(=O)N[C@H](C(=O)N1C[C@@H](NC(=O)c2ccc3cc(C(=O)N[C@H]4C[C@@H](C(=O)N[C@@H]5CCc6ccccc65)N(C(=O)[C@@H](NC(=O)[C@H](C)NC)C5CCCCC5)C4)ccc3c2)C[C@H]1C(=O)N[C@@H]1CCc2ccccc21)C1CCCCC1 [Compound 22]	< 10	< 10
CN[C@@H](C)C(=O)N[C@H](C(=O)N1C[C@@H](NC(=O)c2ccc3cc(C(=O)N[C@H]4C[C@@H](C(=O)NC(c5ccccc5)c5ccccc5)N(C(=O)[C@@H](NC(=O)[C@H](C)NC)C5CCCCC5)C4)ccc3c2)C[C@H]1C(=O)NC(c1ccccc1)c1ccccc1)C1CCCCC1 [Compound 23]	< 10	< 10
CN[C@@H](C)C(=O)N[C@H](C(=O)N1C[C@@H](NC(=O)C2CCC(C(=O)N[C@H]3C[C@@H](C(=O)N[C@@H]4CCOc5ccc(F)cc54)N(C(=O)[C@@H](NC(=O)[C@H](C)NC)C4CCCCC4)C3)CC2)C[C@H]1C(=O)N[C@@H]1CCOc2ccc(F)cc21)C1CCCCC1 (stereo partly drawn) [Compound 24]	10 to 100	< 10
CN[C@@H](C)C(=O)N[C@H](C(=O)N1C[C@@H](NC(=O)c2ccc(C(=O)N[C@H]3C[C@@H](C(=O)N[C@@H]4CCOc5ccc(F)cc54)N(C(=O)[C@@H](NC(=O)[C@H](C)NC)C4CCCCC4)C3)cc2)CC1C(=O)N[C@@H]1CCOc2ccc(F)cc21)C1CCCCC1 (stereo partly drawn) [Compound 25]	10 to 100	< 10
CN[C@@H](C)C(=O)N[C@H](C(=O)N1C[C@@H](NC(=O)c2ccc(C(=O)N[C@H]3C[C@@H](C(=O)N[C@H](C)c4ccc(F)cc4)N(C(=O)[C@@H](NC(=O)[C@H](C)NC)C4CCCCC4)C3)cc2)CC1C(=O)N[C@H](C)c1ccc(F)cc1)C1CCCCC1 (stereo partly drawn) [Compound 26]	< 10	< 10
CN[C@@H](C)C(=O)N[C@H](C(=O)N1C[C@@H](NC(=O)c2ccc(-c3ccc(C(=O)N[C@H]4C[C@@H](C(=O)N[C@H](COCc5ccccc5)c5ccccc5)N(C(=O)[C@@H](NC(=O)[C@H](C)NC)C5CCCCC5)C4)cc3)cc2)C[C@H]1C(=O)N[C@H](COCc1ccccc1)c1ccccc1)C1CCCCC1 [Compound 27]	10 to 100	< 10
CN[C@@H](C)C(=O)N[C@H](C(=O)N1C[C@@H](NC(=O)c2ccc(C(=O)N[C@H]3C[C@@H](C(=O)N4CCCC[C@@H]4c4ccccc4)N(C(=O)[C@@H](NC(=O)[C@H](C)NC)C4CCCCC4)C3)cc2)CC1C(=O)N1CCCC[C@@H]1c1ccccc1)C1CCCCC1 (stereo partly drawn) [Compound 28]	10 to 100	10 to 100
CN[C@@H](C)C(=O)N[C@H](C(=O)N1C[C@@H](NC(=O)c2ccc(C(=O)N[C@H]3C[C@@H](C(=O)NCc4ccccc4)N(C(=O)[C@@H](NC(=O)[C@H](C)NC)C4CCCCC4)C3)cc2)C[C@H]1C(=O)NCc1ccccc1)C1CCCCC1 [Compound 29]	< 10	< 10
